Reference: ChEMBL document CHEMBL3580619, “The antimalarial drug atovaquone binds to saposin B with comparable affinity to coenzyme Q10” (Medchemcomm, 2014)

Legend:
Prosaposin [1] = target: T1, Prosaposin (Homo sapiens, UniProt P07602); experiment: Binding affinity to human saposin B expressed in Escherichia coli BL21 Gold (DE3) at 120 uM using 15 uM sapB and 50 mM MES and 4% THF at pH 5.5 and 25 degC by ITC method; type: ADME; conditions: pH 5.5, 120 µM
T1 sequence (P07602 whole entry): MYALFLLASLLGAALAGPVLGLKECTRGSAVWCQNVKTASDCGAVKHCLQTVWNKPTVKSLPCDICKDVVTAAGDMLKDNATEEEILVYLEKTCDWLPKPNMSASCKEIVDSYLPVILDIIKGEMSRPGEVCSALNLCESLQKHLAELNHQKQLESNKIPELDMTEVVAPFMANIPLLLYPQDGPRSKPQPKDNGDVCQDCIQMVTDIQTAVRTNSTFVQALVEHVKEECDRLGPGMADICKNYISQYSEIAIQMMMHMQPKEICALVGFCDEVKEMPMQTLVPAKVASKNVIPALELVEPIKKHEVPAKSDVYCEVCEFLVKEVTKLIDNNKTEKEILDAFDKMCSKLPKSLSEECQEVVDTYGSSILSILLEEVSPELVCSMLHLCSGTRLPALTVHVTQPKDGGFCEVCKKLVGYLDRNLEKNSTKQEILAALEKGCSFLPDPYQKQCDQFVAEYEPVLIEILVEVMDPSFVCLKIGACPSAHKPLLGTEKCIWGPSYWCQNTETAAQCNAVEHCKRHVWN

Prosaposin [2] = target: T1, Prosaposin; experiment: Binding affinity to human saposin B expressed in Escherichia coli BL21 Gold (DE3) at 154 uM using 25 to 27 uM sapB and 50 mM MES and 50% DMF at pH 5.5 and 25 degC by ITC method; type: ADME; conditions: pH 5.5, 154 µM
[3] = Protein binding in human plasma; type: ADME, cell-free; conditions: read-out: PPB
Prosaposin [4] = target: T1, Prosaposin; experiment: Binding affinity to human saposin B expressed in Escherichia coli BL21 Gold (DE3) at 150 uM using 15 to 20 uM sapB and 50 mM MES and 10% DMF at pH 5.5 and 25 degC by ITC method; type: ADME; conditions: pH 5.5, 150 µM
Albumin [5] = target: T2, Albumin (Homo sapiens, UniProt P02768); experiment: Binding affinity to human serum albumin by CD spectroscopy; type: ADME; conditions: isolated protein
T2 sequence (P02768 whole entry): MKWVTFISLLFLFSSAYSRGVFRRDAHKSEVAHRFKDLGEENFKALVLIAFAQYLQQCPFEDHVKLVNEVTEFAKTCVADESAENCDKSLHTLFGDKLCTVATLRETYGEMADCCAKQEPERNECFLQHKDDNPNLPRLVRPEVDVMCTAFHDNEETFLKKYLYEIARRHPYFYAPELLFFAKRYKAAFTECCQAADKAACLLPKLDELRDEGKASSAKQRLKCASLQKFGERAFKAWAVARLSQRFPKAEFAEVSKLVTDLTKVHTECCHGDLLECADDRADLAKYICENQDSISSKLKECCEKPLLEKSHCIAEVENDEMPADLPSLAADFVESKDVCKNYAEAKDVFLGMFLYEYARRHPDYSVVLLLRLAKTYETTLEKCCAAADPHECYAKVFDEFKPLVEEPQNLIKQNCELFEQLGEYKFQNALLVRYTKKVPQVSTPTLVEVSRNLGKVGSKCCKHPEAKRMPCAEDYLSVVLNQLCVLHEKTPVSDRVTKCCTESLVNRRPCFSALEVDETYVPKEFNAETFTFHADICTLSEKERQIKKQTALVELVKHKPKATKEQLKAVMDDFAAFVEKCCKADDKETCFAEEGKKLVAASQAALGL

Albumin [6] = target: T2, Albumin; experiment: Binding affinity to human serum albumin at 845 uM using 33.8 uM HSA and 14 mM phosphate and 30% DMF at pH 7.4 and 25 degC by fluorescence spectroscopy; type: ADME; conditions: isolated protein, pH 7.4, 845 µM
[7] = Inhibition of coenzyme Q10 binding to cytochrome bc1 complex (unknown origin)
Albumin [8] = target: T2, Albumin; experiment: Binding affinity to human serum albumin at 150 uM using 20 uM HSA and 20 mM phosphate and 30% DMF at pH 7.4 and 25 degC by ITC method; type: ADME; conditions: isolated protein, pH 7.4, 150 µM
Albumin [9] = target: T2, Albumin; experiment: Ratio of Ka for human serum albumin by ITC method to Ka for human serum albumin by CD spectroscopy; type: ADME
Prosaposin [10] = target: T1, Prosaposin; experiment: Binding affinity to human saposin B expressed in Escherichia coli BL21 Gold (DE3) at 150 um using 20 uM SapB and 20 mM phosphate and 30% DMF at pH 7.4 and 25 degC by ITC method; type: ADME; conditions: pH 7.4, 150 µM
Albumin [11] = target: T2, Albumin; experiment: Binding affinity to human serum albumin in Ringer buffer and 2 to 7% v/v ethanol at pH 7.4 and 37 degC by CD spectroscopy; type: ADME; conditions: isolated protein

Row | K (Prosaposin [1]) | K (Prosaposin [2]) | fraction unbound [3] | K (Prosaposin [4]) | Ka (Albumin [5]) | Ka (Albumin [6]) | Ki [7] | K (Albumin [8]) | Ratio (Albumin [9]) | K (Prosaposin [10]) | K (Albumin [11]) | SMILES
1 | 2.41 ×10⁷ /M | 1.7 ×10⁷ /M | – | – | – | – | – | – | – | – | – | COC1=C(OC)C(=O)C(C/C=C(\C)CC/C=C(\C)CC/C=C(\C)CC/C=C(\C)CC/C=C(\C)CC/C=C(\C)CC/C=C(\C)CC/C=C(\C)CC/C=C(\C)CCC=C(C)C)=C(C)C1=O [UBIDECARENONE]
2 | – | – | < 0.005 | 1.11 ×10⁷ /M | 2 ×10⁶ /M | 7.15 ×10⁴ /M | 9 nM | 1.06 ×10⁵ /M | 10 | 8.02 ×10⁴ /M | 1 ×10⁶ /M | O=C1C(O)=C([C@H]2CC[C@H](c3ccc(Cl)cc3)CC2)C(=O)c2ccccc21 [ATOVAQUONE]
